Measured values published in patent US7541472B2 (priority 2004, dated 2009).

Legend:
Assay in all cases: microbe, parasite or virus in culture
Type in all cases: cell-based
Stagonospora nodorum = conditions: for IC50: Parastagonospora nodorum, read-out: IC50 S. nodorum
Phytophthora infestans = conditions: for IC50: Phytophthora infestans, read-out: IC50 P. infestans; for IC50 P. infestans: fungal growth on 1.5% agar minimal media, 20° C., 3-5 days, 3-fold serial dilutions, C.V. class in parentheses
Botrytis cinerea = conditions: read-out: IC50 B. cinerea
Septoria tritici = conditions: for IC50: Zymoseptoria tritici, read-out: IC50 S. tritici

| SMILES | IC50 S. nodorum (Stagonospora nodorum) | IC50 (Phytophthora infestans) | IC50 (Botrytis cinerea) | IC50 S. tritici (Septoria tritici) | IC50 P. infestans (Phytophthora infestans) | IC50 (Stagonospora nodorum) | IC50 (Septoria tritici) |
| --- | --- | --- | --- | --- | --- | --- | --- |
| O=C(OCc1cccc(C(F)(F)F)c1)/C(=C\c1ccccc1)C(O)c1cccnc1 (stereo not drawn) [Compound 5, 3-(Trifluoromethyl)phenylmethyl Z-α-(α-hydroxy-3-pyridylmethyl)-3-phenylpropenoate] | A (b) | > 25 µM | > 25 µM | A (b) | – | – | – |
| C=C(C(=O)OCc1ccc(Oc2cccc(Cl)c2)cc1)C(O)c1cccnc1 (stereo not drawn) [Compound 24, 4-(3-Chlorophenoxy)phenylmethyl β-hydroxy-α-methylene-3-pyridinepropanoate] | C (c) | 16 to 25 µM | > 25 µM | A (d) | – | – | – |
| C=C(C(=O)Oc1ccc(Cl)cc1)C(O)c1cccnc1 (stereo not drawn) [Compound 19, 4-Chlorophenyl β-hydroxy-α-methylene-3-pyridinepropanoate] | C (c) | – | > 25 µM | A (c) | A (c) | – | – |
| C=C(C(=O)OCc1ccc(Oc2ccccc2)cc1)C(O)c1nccs1 (stereo not drawn) [Compound 30, 4-Phenoxyphenylmethyl β-hydroxy-α-methylene-2-thiazolepropanoate] | – | – | 16 to 25 µM | – | A (b) | > 25 µM | 6 to 15 µM |
| C=C(C(=O)OCc1ccc(Cl)c(Cl)c1)C(O)c1nccs1 (stereo not drawn) [Compound 4, 3,4-Dichlorophenylmethyl β-hydroxy-α-methylene-2-thiazolepropanoate] | C (b) | – | < 5 µM | B (b) | B (d) | – | – |
| C=C(C(=O)OCc1ccc(Oc2ccccc2)cc1)C(O)c1cccnc1 (stereo not drawn) [Compound 28, 4-Phenoxyphenylmethyl β-hydroxy-α-methylene-3-pyridinepropanoate] | – | – | – | – | B (a) | 6 to 15 µM | < 5 µM |
